# From patent publication US7714014B2, “Targeting GLI proteins in human cancer by small molecules” (The Regents of the University of California, priority 2005, dated 2010)
# Legend:
# [1] = test system: melanoma cell lines Malme-3M, A375, G361, SK-Mel-2, SK-Mel-5, and SK-Mel-28; assay: Time course of cell survival (flow cytometry); assay type: cell-based, human
# Procedure: The time course of cell survival in melanoma cell lines (Malme-3M, A375, G361, SK-Mel-2, SK-Mel-5, and SK-Mel-28) after administration of small molecule compound FN1-8 was analyzed. These melanoma cells were incubated with 10 μM or 20 μM FN1-8. Then flow cytometry was used to examine the percentage of living and dead cells at different time points. […] (FIGS. 18A, B, and C, and data not shown).
# [2] = test system: human normal skin fibroblast cells (Malme-3); assay: Time course of cell survival (flow cytometry); assay type: cell-based; conditions: 10 μM or 20 μM, after 6 days
# Procedure: To investigate whether small molecule compounds of the present invention, e.g., FN1-8, specifically kill cancer cells, time course experiments of cell survival after administration of 10 μM and 20 μM of FN1-8 were also conducted using human normal skin fibroblast cells (Malme-3).
# [3] = test system: GLI1, GLI2 and GLI/TAFII31 induced transcription in NSCLC A549 cells; assay: 6xGLI BS-luciferase reporter assay (GLI / TAFII31 co-expression); assay type: cell-based, human; conditions: for reduction of transcription activity (6xGLI BS-luciferase): 20 μM, 16-20 hours
# Procedure: One day before transfection, cells (1×10^5) were plated in 12-well plates with growth medium without antibiotics. When cells reached 80-90% of confluence they were co-transfected using 0.5 μg of each promoter construct in pGL3Basic vector and 0.025 μg pRL-TK Vector (Promega; Madison, Wis.) containing Renilla Luciferase as an internal control for the transformation efficiency. Lipofectamine 2000™ (Invitrogen Life Technologies) was used to mediate transfection for about 6 hours. Then the medium was replaced with fresh medium containing various small molecule compounds at a concentration of 30 μM, and the resulting cells were cultured for an additional 18-24 hours and subjected to luciferase assay. Briefly, cells were lysed in a lysis buffer and Firefly and Renilla Luciferase activities in cells of each well, were measured using Dual-Luciferase Assay System (Promega) and an illuminometer. The measured luciferase activities were normalized to pRL-TK Vector activity and were given relative to the basal activity of empty pGL3-Basic Vector, which was set to unity. The data shown represent mean values (±S.D.). All measurements were performed in triplicate and repeated in at least three independent experiments. The human Wnt-2 promoter-luciferase construct, the human SOCS3 promoter-Luciferase construct and the human Gremlin promoter-luciferase construct were cloned and characterized in the laboratory of Dr. Jablons at the University of California, San Francisco (San Francisco, Calif.; He et al., Biochem Biophy Res Comm, 2003; and unpublished data). The 6GLI-TKO-luciferase construct (containing 6 repeats of consensus GLI DNA binding sequence) was kindly provided by Dr. Matthias Hebrok's laboratory at the University of California, San Francisco (San Francisco, Calif.).
# Further, the specificity of the compounds of the present invention in inhibiting GLI activity and to determine whether these compounds block the interaction between GlLI and TAFII31 as described above, was examined. Specifically, in this analysis, an expression construct linking the 6 repeats of GLI-binding sites (6xGLI BS) to a luciferase reporter gene as a surrogate measurement of the GLI-dependent transcription was used to examine the 6xGLI BS-luciferase activity after treatment of NSCLC A549 cells with compound FN1-8. […] This finding again confirmed that both GLI1 and GLI2 specifically bound to the GLI-binding sites and were functionally active in transcription. […] After treatment of the A549 cells for 16-20 hours with 20 μM, FN1-8 both GLI alone and GLI/TAFII31 induced 6xGLI BS-luciferase transcription was reduced.
structure (smiles),measurement,setting,value
"O=C(NCCc1ccc(O)cc1)C1C(c2ccccc2)=NN(c2ccccc2)C1c1ccccc1 (stereo not shown) [FN1-8, N-(2-(4-Hydroxyphenyl)ethyl)-1,3,5-triphenyl-4,5-dihydro-pyrazole-4-carboxyamide]",time after which cell killing effect was apparent,"[1]; 20 μM, all tested melanoma cells",2 days
same,apoptosis in time course experiment,"[1]; Malme-3M, A375, SK-Mel-5 (FIG. 14)",induces significant apoptosis
same,cell killing in normal cells,[2],no cell killing
same,GLI protein-TAF-induced transcriptional activation,[3]; A549 (FIG. 16),reduces GLI protein-TAF-induced transcriptional activation
same,reduction of transcription activity (6xGLI BS-luciferase),[3]; GLI1 cotransfected with TAFII31,about 70%
same,reduction of transcription activity (6xGLI BS-luciferase),[3]; GLI2 cotransfected with TAFII31,about 50%
same,reduction of transcription activity (6xGLI BS-luciferase),[3]; GLI alone,approximately 30%
